Measured values from patent US6358885B1, “Substituted phenylheterocyclic herbicides” (Mississippi State University, priority 1992, dated 2002).

Key:
Test in all cases: Test B preemergence/postemergence greenhouse plant response rating 0 to 10
wheat = type: in vivo, Triticum aestivum; details: for Plant response rating (0 to 10 scale), Wheat: Rate 100 g/ha; for Plant response rating, Wheat: Rate 400 g/ha, 0 to 10 scale
Outline: (§1)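 Planted seeds are treated preemergence with compound dissolved in a non-phytotoxic solvent, while postemergence applications go onto plants of two to eighteen cm. Plants stay in the greenhouse twelve to sixteen days and are then rated visually relative to controls.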

rice = type: in vivo, Oryza sativa; details: for Plant response rating (0 to 10 scale), Rice: Rate 100 g/ha; for Plant response rating, Rice: Rate 400 g/ha, 0 to 10 scale
Outline: as §1

cheatgrass = type: in vivo, Bromus secalinus; details: for Plant response rating (0 to 10 scale), Cheatgrass: Rate 100 g/ha; for Plant response rating, Cheatgrass: Rate 400 g/ha, 0 to 10 scale
Outline: as §1

barley = type: in vivo, Hordeum vulgare; details: for Plant response rating (0 to 10 scale), Barley: Rate 100 g/ha; for Plant response rating, Barley: Rate 400 g/ha, 0 to 10 scale
Outline: as §1

sugar beet = type: in vivo, Beta vulgaris; details: for Plant response rating (0 to 10 scale), Sugar beet: Rate 100 g/ha; for Plant response rating, Sugar beet: Rate 400 g/ha, 0 to 10 scale
Outline: as §1

cotton = type: in vivo, Gossypium hirsutum; details: for Plant response rating (0 to 10 scale), Cotton: Rate 100 g/ha; for Plant response rating, Cotton: Rate 400 g/ha, 0 to 10 scale
Outline: as §1

purple nutsedge = type: in vivo, Cyperus rotundus; details: for Plant response rating (0 to 10 scale), Nutsedge: Rate 100 g/ha; for Plant response rating, Nutsedge: Rate 400 g/ha, 0 to 10 scale
Outline: as §1

crabgrass = type: in vivo, Digitaria spp.; details: for Plant response rating (0 to 10 scale), Crabgrass: Rate 100 g/ha; for Plant response rating, Crabgrass: Rate 400 g/ha, 0 to 10 scale
Outline: as §1

morningglory = type: in vivo, Ipomoea hederacea; details: for Plant response rating (0 to 10 scale), Morningglory: Rate 100 g/ha; for Plant response rating, Morningglory: Rate 400 g/ha, 0 to 10 scale
Outline: as §1

blackgrass = type: in vivo, Alopecurus myosuroides; details: for Plant response rating (0 to 10 scale), Blackgrass: Rate 100 g/ha; for Plant response rating, Blackgrass: Rate 400 g/ha, 0 to 10 scale
Outline: as §1

giant foxtail = type: in vivo, Setaria faberii; details: for Plant response rating (0 to 10 scale), Giant foxtail: Rate 100 g/ha; for Plant response rating, Giant foxtail: Rate 400 g/ha, 0 to 10 scale
Outline: as §1

sorghum = type: in vivo, Sorghum bicolor; details: for Plant response rating (0 to 10 scale), Sorghum: Rate 100 g/ha; for Plant response rating, Sorghum: Rate 400 g/ha, 0 to 10 scale
Outline: as §1

cocklebur = type: in vivo, Xanthium pensylvanicum; details: for Plant response rating (0 to 10 scale), Cocklebur: Rate 100 g/ha; for Plant response rating, Cocklebur: Rate 400 g/ha, 0 to 10 scale
Outline: as §1

bedstraw = type: in vivo, Galium aparine; details: for Plant response rating (0 to 10 scale), Bedstraw: Rate 100 g/ha; for Plant response rating, Bedstraw: Rate 400 g/ha, 0 to 10 scale
Outline: as §1

lambsquarters = type: in vivo, Chenopodium album; details: for Plant response rating (0 to 10 scale), Lambsquarter: Rate 100 g/ha; for Plant response rating, Lambsquarter: Rate 400 g/ha, 0 to 10 scale
Outline: as §1

rape = type: in vivo, Brassica napus; details: for Plant response rating (0 to 10 scale), Rape: Rate 100 g/ha; for Plant response rating, Rape: Rate 400 g/ha, 0 to 10 scale
Outline: as §1

velvetleaf = type: in vivo, Abutilon theophrasti; details: for Plant response rating (0 to 10 scale), Velvetleaf: Rate 100 g/ha; for Plant response rating, Velvetleaf: Rate 400 g/ha, 0 to 10 scale
Outline: as §1

corn = type: in vivo, Zea mays; details: for Plant response rating (0 to 10 scale), Corn: Rate 100 g/ha; for Plant response rating, Corn: Rate 400 g/ha, 0 to 10 scale
Outline: as §1

barnyardgrass = type: in vivo, Echinochloa crus-galli; details: for Plant response rating (0 to 10 scale), Barnyardgrass: Rate 100 g/ha; for Plant response rating, Barnyardgrass: Rate 400 g/ha, 0 to 10 scale
Outline: as §1

wild buckwheat = type: in vivo, Polygonum convolvulus; details: for Plant response rating (0 to 10 scale), Wild buckwheat: Rate 100 g/ha; for Plant response rating, Wild buckwheat: Rate 400 g/ha, 0 to 10 scale
Outline: as §1

chickweed = type: in vivo, Stellaria media; details: for Plant response rating (0 to 10 scale), Chickweed: Rate 100 g/ha; for Plant response rating, Chickweed: Rate 400 g/ha, 0 to 10 scale
Outline: as §1

wild oat = type: in vivo, Avena fatua; details: for Plant response rating (0 to 10 scale), Wild oat: Rate 100 g/ha; for Plant response rating, Wild oat: Rate 400 g/ha, 0 to 10 scale
Outline: as §1

soybean = type: in vivo, Glycine max; details: for Plant response rating (0 to 10 scale), Soybean: Rate 100 g/ha; for Plant response rating, Soybean: Rate 400 g/ha, 0 to 10 scale
Outline: as §1

SMILES: Fc1ccc(-c2nc3n(c2Br)CCCC3)c(F)c1 [Compound 7]
- Plant response rating (0 to 10 scale), Wheat (wheat; POSTEMERGENCE): 3
- Plant response rating, Wheat (wheat; POSTEMERGENCE): 5
- Plant response rating (0 to 10 scale), Wheat (wheat; PREEMERGENCE): 0
- Plant response rating, Wheat (wheat; PREEMERGENCE): 0
- Plant response rating (0 to 10 scale), Rice (rice; POSTEMERGENCE): 5
- Plant response rating, Rice (rice; POSTEMERGENCE): 5
- Plant response rating (0 to 10 scale), Rice (rice; PREEMERGENCE): 0
- Plant response rating, Rice (rice; PREEMERGENCE): 0
- Plant response rating (0 to 10 scale), Cheatgrass (cheatgrass; POSTEMERGENCE): 3
- Plant response rating, Cheatgrass (cheatgrass; POSTEMERGENCE): 4
- Plant response rating (0 to 10 scale), Cheatgrass (cheatgrass; PREEMERGENCE): 0
- Plant response rating, Cheatgrass (cheatgrass; PREEMERGENCE): 0
- Plant response rating (0 to 10 scale), Barley (barley; POSTEMERGENCE): 2
- Plant response rating, Barley (barley; POSTEMERGENCE): 3
- Plant response rating (0 to 10 scale), Barley (barley; PREEMERGENCE): 0
- Plant response rating, Barley (barley; PREEMERGENCE): 0
- Plant response rating (0 to 10 scale), Sugar beet (sugar beet; POSTEMERGENCE): 9
- Plant response rating, Sugar beet (sugar beet; POSTEMERGENCE): 10
- Plant response rating (0 to 10 scale), Sugar beet (sugar beet; PREEMERGENCE): 0
- Plant response rating, Sugar beet (sugar beet; PREEMERGENCE): 0
- Plant response rating (0 to 10 scale), Cotton (cotton; POSTEMERGENCE): 9
- Plant response rating, Cotton (cotton; POSTEMERGENCE): 10
- Plant response rating (0 to 10 scale), Cotton (cotton; PREEMERGENCE): 0
- Plant response rating, Cotton (cotton; PREEMERGENCE): 0
- Plant response rating (0 to 10 scale), Nutsedge (purple nutsedge; POSTEMERGENCE): 1
- Plant response rating, Nutsedge (purple nutsedge; POSTEMERGENCE): 2
- Plant response rating (0 to 10 scale), Nutsedge (purple nutsedge; PREEMERGENCE): 0
- Plant response rating, Nutsedge (purple nutsedge; PREEMERGENCE): 2
- Plant response rating (0 to 10 scale), Crabgrass (crabgrass; POSTEMERGENCE): 4
- Plant response rating, Crabgrass (crabgrass; POSTEMERGENCE): 4
- Plant response rating (0 to 10 scale), Crabgrass (crabgrass; PREEMERGENCE): 2
- Plant response rating, Crabgrass (crabgrass; PREEMERGENCE): 6
- Plant response rating (0 to 10 scale), Morningglory (morningglory; POSTEMERGENCE): 8
- Plant response rating, Morningglory (morningglory; POSTEMERGENCE): 9
- Plant response rating (0 to 10 scale), Morningglory (morningglory; PREEMERGENCE): 0
- Plant response rating, Morningglory (morningglory; PREEMERGENCE): 0
- Plant response rating (0 to 10 scale), Blackgrass (blackgrass; POSTEMERGENCE): 3
- Plant response rating, Blackgrass (blackgrass; POSTEMERGENCE): 4
- Plant response rating (0 to 10 scale), Blackgrass (blackgrass; PREEMERGENCE): 0
- Plant response rating, Blackgrass (blackgrass; PREEMERGENCE): 2
- Plant response rating (0 to 10 scale), Giant foxtail (giant foxtail; POSTEMERGENCE): 5
- Plant response rating, Giant foxtail (giant foxtail; POSTEMERGENCE): 5
- Plant response rating (0 to 10 scale), Giant foxtail (giant foxtail; PREEMERGENCE): 3
- Plant response rating, Giant foxtail (giant foxtail; PREEMERGENCE): 4
- Plant response rating (0 to 10 scale), Sorghum (sorghum; POSTEMERGENCE): 5
- Plant response rating, Sorghum (sorghum; POSTEMERGENCE): 6
- Plant response rating (0 to 10 scale), Sorghum (sorghum; PREEMERGENCE): 0
- Plant response rating, Sorghum (sorghum; PREEMERGENCE): 0
- Plant response rating (0 to 10 scale), Cocklebur (cocklebur; POSTEMERGENCE): 7
- Plant response rating, Cocklebur (cocklebur; POSTEMERGENCE): 8
- Plant response rating (0 to 10 scale), Cocklebur (cocklebur; PREEMERGENCE): 0
- Plant response rating, Cocklebur (cocklebur; PREEMERGENCE): 0
- Plant response rating (0 to 10 scale), Bedstraw (bedstraw; POSTEMERGENCE): 4
- Plant response rating, Bedstraw (bedstraw; POSTEMERGENCE): 6
- Plant response rating (0 to 10 scale), Bedstraw (bedstraw; PREEMERGENCE): 0
- Plant response rating, Bedstraw (bedstraw; PREEMERGENCE): 2
- Plant response rating (0 to 10 scale), Lambsquarter (lambsquarters; POSTEMERGENCE): 8
- Plant response rating, Lambsquarter (lambsquarters; POSTEMERGENCE): 9
- Plant response rating (0 to 10 scale), Lambsquarter (lambsquarters; PREEMERGENCE): 0
- Plant response rating, Lambsquarter (lambsquarters; PREEMERGENCE): 6
- Plant response rating (0 to 10 scale), Rape (rape; POSTEMERGENCE): 5
- Plant response rating, Rape (rape; POSTEMERGENCE): 7
- Plant response rating (0 to 10 scale), Rape (rape; PREEMERGENCE): 0
- Plant response rating, Rape (rape; PREEMERGENCE): 0
- Plant response rating (0 to 10 scale), Velvetleaf (velvetleaf; POSTEMERGENCE): 7
- Plant response rating, Velvetleaf (velvetleaf; POSTEMERGENCE): 9
- Plant response rating (0 to 10 scale), Velvetleaf (velvetleaf; PREEMERGENCE): 1
- Plant response rating, Velvetleaf (velvetleaf; PREEMERGENCE): 5
- Plant response rating (0 to 10 scale), Corn (corn; POSTEMERGENCE): 3
- Plant response rating, Corn (corn; POSTEMERGENCE): 4
- Plant response rating (0 to 10 scale), Corn (corn; PREEMERGENCE): 0
- Plant response rating, Corn (corn; PREEMERGENCE): 0
- Plant response rating (0 to 10 scale), Barnyardgrass (barnyardgrass; POSTEMERGENCE): 4
- Plant response rating, Barnyardgrass (barnyardgrass; POSTEMERGENCE): 6
- Plant response rating (0 to 10 scale), Barnyardgrass (barnyardgrass; PREEMERGENCE): 1
- Plant response rating, Barnyardgrass (barnyardgrass; PREEMERGENCE): 2
- Plant response rating (0 to 10 scale), Wild buckwheat (wild buckwheat; POSTEMERGENCE): 9
- Plant response rating, Wild buckwheat (wild buckwheat; POSTEMERGENCE): 10
- Plant response rating (0 to 10 scale), Wild buckwheat (wild buckwheat; PREEMERGENCE): 0
- Plant response rating, Wild buckwheat (wild buckwheat; PREEMERGENCE): 3
- Plant response rating (0 to 10 scale), Chickweed (chickweed; POSTEMERGENCE): 3
- Plant response rating, Chickweed (chickweed; POSTEMERGENCE): 3
- Plant response rating (0 to 10 scale), Chickweed (chickweed; PREEMERGENCE): 0
- Plant response rating, Chickweed (chickweed; PREEMERGENCE): 3
- Plant response rating (0 to 10 scale), Wild oat (wild oat; POSTEMERGENCE): 2
- Plant response rating, Wild oat (wild oat; POSTEMERGENCE): 3
- Plant response rating (0 to 10 scale), Wild oat (wild oat; PREEMERGENCE): 0
- Plant response rating, Wild oat (wild oat; PREEMERGENCE): 0
- Plant response rating (0 to 10 scale), Soybean (soybean; POSTEMERGENCE): 8
- Plant response rating, Soybean (soybean; POSTEMERGENCE): 8
- Plant response rating (0 to 10 scale), Soybean (soybean; PREEMERGENCE): 0
- Plant response rating, Soybean (soybean; PREEMERGENCE): 0
